From patent US12195557B2, “Optimised compounds” (AXELIA ONCOLOGY PTY LTD, priority 2017, dated 2025)
Entries after “also recorded” stand apart in the source; their conditions may differ.

Tests used:
human TLR2 = target: T1, human TLR2 (Homo sapiens, UniProt O60603); assay: NF-kB activation in HEKBlue-hTLR2 cell line (SEAP reporter); format: cell-based
T1 construct: host or cells: HEK-Blue hTLR2 (HEK293-derived) cell line
Method: The potency of the compounds as activators of human and mouse TLR-2s was tested in an in vitro assay. The assay assesses NF-kB activation in the HEKBlue-mTLR-2 cell line. These cells have been stably transfected with mouse TLR-2 and express TLR-1 and TLR-6 endogenously at sufficient levels to allow for fully-functional TLR-1/2 and TLR-2/6 activation.
(§1) Toll-Like Receptor 2 (TLR2) stimulation is tested by assessing NF-kB activation in the HEKBlue-hTLR2 cell line. These cells have been stably transfected with human TLR2 and express TLR1 and TLR6 endogenously at a level sufficient to allow for fully-functional TLR1/2 and TLR2/6 activation. The activity of the test articles are tested on human TLR2 as potential agonists. The test articles are evaluated at seven concentrations and compared to control ligands. These steps are performed in triplicate.
as §1, with “stimulation was” for “stimulation is”, “assessing N-kB” for “assessing NF-kB”, “the HEK-Blue hTLR2” for “the HEKBlue-hTLR2”, “articles were” for “articles are”, “control ligands (see list below).” for “control ligands.”, “steps were” for “steps are”
The secreted embryonic alkaline phosphatase (SEAP) reporter is under the control of a promoter inducible by the transcription factor NF-κB. This reporter gene allows the monitoring of signaling through the TLR, based on the activation of NF-κB. In a 96-well plate (200 μL total volume) containing the appropriate cells (50,000-75,000 cells/well), 20 μL of the test article or the positive control ligand is added to the wells. The media added to the wells is designed for the detection of NF-κB induced SEAP expression. After a 20 hour incubation the optical density (OD) is read at 650 nm on a Molecular Devices SpectraMax 340PC absorbance detector.

TLR-2 = assay: TLR panel, NF-κB inducible SEAP reporter in HEK293 cells: TLR-2; format: cell-based, human and mouse
Method: INNA-006 was assessed for its ability to activate a range of other TLR pattern recognition receptors. These assessments were conducted using both human and mouse TLR panels. These assays detect a secreted embryonic alkaline phosphatase (SEAP) reporter under the control of a promoter which is inducible by NF-κB activation in HEK293 cells. The secreted embryonic alkaline phosphatase (SEAP) reporter is under the control of a promoter inducible by the transcription factor NF-κB. This reporter gene allows the monitoring of signaling through the TLR, based on the activation of NF-κB. In a 96-well plate (200 μL total volume) containing the appropriate cells (50,000-75,000 cells/well), 20 μL of the test article or the positive control ligand is added to the wells. The media added to the wells is designed for the detection of NF-κB induced SEAP expression. After a 16-24 hr incubation the optical density (OD) is read at 650 nm on a Molecular Devices SpectraMax 340PC absorbance detector. • hTLR2: HKLM (heat-killed Listeria monocytogenes) at 1×10^8 cells/mL • hTLR3: Poly(I:C) HMW at 1 μg/mL • hTLR4: E. coli K12 LPS at 100 ng/mL • hTLR5: S. typhimurium flagellin at 100 ng/mL • hTLR7: CL307 at 1 μg/mL • hTLR8: CL075 at 1 μg/mL • hTLR9: CpG ODN2006 at 1 μg/mL.

in vitro = conditions: human, hepatocytes

T1 sequence (O60603 21-784): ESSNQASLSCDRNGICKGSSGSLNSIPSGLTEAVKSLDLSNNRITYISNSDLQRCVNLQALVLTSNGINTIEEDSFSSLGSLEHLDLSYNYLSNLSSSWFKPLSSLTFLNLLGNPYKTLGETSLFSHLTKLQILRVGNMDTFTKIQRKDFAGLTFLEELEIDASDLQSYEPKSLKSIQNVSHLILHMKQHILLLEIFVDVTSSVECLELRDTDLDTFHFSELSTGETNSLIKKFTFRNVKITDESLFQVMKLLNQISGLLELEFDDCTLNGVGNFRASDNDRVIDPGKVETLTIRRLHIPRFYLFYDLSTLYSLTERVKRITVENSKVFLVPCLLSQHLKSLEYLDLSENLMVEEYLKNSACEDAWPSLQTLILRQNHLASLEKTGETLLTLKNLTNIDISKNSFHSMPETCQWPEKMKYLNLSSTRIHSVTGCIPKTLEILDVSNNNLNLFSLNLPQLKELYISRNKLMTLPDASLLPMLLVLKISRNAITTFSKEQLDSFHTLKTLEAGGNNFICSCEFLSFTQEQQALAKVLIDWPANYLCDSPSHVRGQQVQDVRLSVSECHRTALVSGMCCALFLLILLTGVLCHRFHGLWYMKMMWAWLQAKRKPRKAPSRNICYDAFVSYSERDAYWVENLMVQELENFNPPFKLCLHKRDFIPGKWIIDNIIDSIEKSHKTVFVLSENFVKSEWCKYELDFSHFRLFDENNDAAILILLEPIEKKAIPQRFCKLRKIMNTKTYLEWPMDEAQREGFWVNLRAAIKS
T1 sequence (Q9Y2C9 32-796 partner): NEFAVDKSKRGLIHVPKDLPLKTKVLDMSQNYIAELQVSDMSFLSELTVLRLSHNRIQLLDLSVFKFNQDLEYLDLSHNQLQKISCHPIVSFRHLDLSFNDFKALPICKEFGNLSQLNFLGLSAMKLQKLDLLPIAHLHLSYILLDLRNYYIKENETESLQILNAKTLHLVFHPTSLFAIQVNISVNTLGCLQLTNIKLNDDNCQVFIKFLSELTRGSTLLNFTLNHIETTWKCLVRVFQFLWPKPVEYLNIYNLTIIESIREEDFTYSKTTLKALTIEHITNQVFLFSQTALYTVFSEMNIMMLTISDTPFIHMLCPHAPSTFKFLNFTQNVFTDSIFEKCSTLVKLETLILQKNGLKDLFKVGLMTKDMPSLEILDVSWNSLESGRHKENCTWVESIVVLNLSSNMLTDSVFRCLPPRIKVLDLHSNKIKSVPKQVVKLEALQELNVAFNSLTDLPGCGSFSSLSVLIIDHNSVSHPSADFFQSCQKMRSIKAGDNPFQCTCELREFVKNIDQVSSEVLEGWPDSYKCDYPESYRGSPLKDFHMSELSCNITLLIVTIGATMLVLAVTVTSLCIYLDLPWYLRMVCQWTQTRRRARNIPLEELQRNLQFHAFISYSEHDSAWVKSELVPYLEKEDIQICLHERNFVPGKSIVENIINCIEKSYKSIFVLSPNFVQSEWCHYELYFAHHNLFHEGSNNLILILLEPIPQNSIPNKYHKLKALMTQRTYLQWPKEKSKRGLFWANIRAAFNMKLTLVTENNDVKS

## CCC(=O)OCC(CSCC(N)C(=O)NC(CO)C(=O)NCCOCC(=O)NCC(N)=O)OC(=O)CC (stereo not drawn) [INNA-006, Pam2Cys-Ser-PEG]
Human TLR2; Example 2
  TLR2 activation, potency in words: significantly more potent than INNA-003
Human TLR2; agonist activity against Human TLR-2 in vitro
  EC50: 7.7 pM
TLR-2
  TLR-2 activation: specific TLR-2 activation; also recorded: able to activate
In vitro
  half-life at 0.5 μM: > 6.25 h
  hepatocyte CLint at 0.5 μM: < 2 µL/min/1e6 cells
